Results taken from patent US12479823B2, “Compound for use in retinal diseases” (ZHUHAI UNITED LABORATORIES CO., LTD., priority 2018, dated 2025).

Assays:
[1] = molecular target: T1, CYP3A4 (Homo sapiens, UniProt P08684); assay: Inhibition of human liver microsomal cytochrome P450 CYP3A4; assay type: in vitro ADME; conditions: human liver microsomes, two probe substrates, NADPH
T1 construct: fused human liver microsomes were selected as a CYP450 enzyme source; from tissue; host or cells: pooled ("fused") human liver microsomes
T1 sequence (P08684 whole entry, the tested form may be a part): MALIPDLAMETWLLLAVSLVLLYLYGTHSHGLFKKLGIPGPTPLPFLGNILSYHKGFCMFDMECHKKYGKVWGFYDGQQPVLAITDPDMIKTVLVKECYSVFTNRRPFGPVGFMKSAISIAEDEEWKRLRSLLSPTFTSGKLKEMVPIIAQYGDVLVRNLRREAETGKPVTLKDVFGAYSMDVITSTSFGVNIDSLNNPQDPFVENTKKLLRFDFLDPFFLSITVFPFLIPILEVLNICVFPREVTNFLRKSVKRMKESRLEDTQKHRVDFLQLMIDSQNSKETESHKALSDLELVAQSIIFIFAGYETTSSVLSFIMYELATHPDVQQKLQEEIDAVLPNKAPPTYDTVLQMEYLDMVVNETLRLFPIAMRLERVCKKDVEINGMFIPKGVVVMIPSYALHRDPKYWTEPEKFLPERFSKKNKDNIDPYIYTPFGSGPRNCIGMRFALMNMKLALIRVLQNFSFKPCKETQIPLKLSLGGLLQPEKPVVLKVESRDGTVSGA
Description: Objective: To study the inhibitory effect of compounds on human liver microsomal cytochrome P450. Experimental procedures: In the study on inhibition of the compounds on the human liver microsomal cytochrome P450 (CYP1A2, CYP2C9, CYP2C19, CYP2D6 and CYP3A4), fused human liver microsomes were selected as a CYP450 enzyme source. […]

[2] = Pharmacokinetics in Beagle dogs, single intravenous injection; assay type: in vivo; conditions: male, dog, plasma, 1 mg/kg single intravenous injection
Description: Objective: To Study Pharmacokinetics of the Compound in Beagle Dogs
Experimental Material: Beagle Dogs (male, 8-11 kg, greater than or equal to 6 months, Marshall)
Pharmacokinetic profiles of the compound were tested by intravenous administration in […] according to the standard protocol. In the study, the candidate compound was prepared as a clear solution, and was administered to Beagle dogs at 1 mg/kg by single intravenous injection. A vehicle for intravenous injection was a 10% hydroxypropyl ß-cyclodextrin aqueous solution. Whole blood samples were collected at 0.033, 0.083, 0.25, 0.5, 1, 2, 4, 8, 12, and 24 hours, respectively, centrifuged at 3000 r for 10 min, and separated from supernatant to obtain plasma samples. 20 μL of plasma samples were mixed with 400 μL of acetonitrile precipitated proteins containing an internal standard, and 2 μL of the supernatant was injected by centrifugation. Plasma concentrations were quantified by LC-MS/MS analysis, and pharmacokinetic parameters, such as clearance, half-life, and area under the concentration-time curve, etc. were calculated.

[3] = Pharmacokinetics in SD rats, intravenous injection for 5 consecutive days; assay type: in vivo; conditions: male, Sprague-Dawley (SD), rat, plasma, 20 mg/kg, 20 mg/kg intravenous daily
Description: Objective: To study 5-day Toxicology of Compounds in SD Rats
Experimental materials: SD rats (male, 200-300 g, 7-9 weeks old, Shanghai Lingchang)
Pharmacokinetic profiles of the compound were tested by intravenous injection in rodents according to the standard protocol. In the study, the candidate compound was prepared as a clear solution, and was administered to SD rats at 20 mg/kg by single intravenous injection for 5 consecutive days. A vehicle for intravenous injection was a 10% hydroxypropyl β-cyclodextrin aqueous solution. Whole blood samples were collected at 0.033, 0.083, 0.25, 0.5, 1, 2, 4, 8, and 24 hours postdose on Day 1 and Day 5 of dosing, centrifuged at 3000 r for 10 min, and separated from supernatant to obtain plasma samples. 15 μL of plasma samples were mixed with 300 μL of acetonitrile precipitated proteins containing an internal standard, and 2 μL of the supernatant was injected by centrifugation. Plasma concentrations were quantified by LC-MS/MS analysis, and pharmacokinetic parameters, such as clearance, half-life, and area under the concentration-time curve, were calculated.

With `CC(C)(O)c1ccc(-c2cnc(C(C)(C)O)c(N)c2)cc1N` [Compound 3] the IC50 [1] was greater than 50 µM, the clearance [2] was 15 mL/min/kg and the AUC ([2]; read-out: Area under the concentration-time curve AUC) was 3.71 µM·h. For the same molecule, the half-life ([2]; read-out: Half-time T1/2 (converted)) was 2.17 h, the clearance ([3]; Day 1) was 7.11 mL/min/kg and the AUC ([3]; Day 1, read-out: Area under the concentration-time curve AUC) was 156 µM·h. It also gave a half-life ([3]; Day 1, read-out: Half-time T1/2 (converted)) of 2.45 h, a clearance ([3]; Day 5) of 9.04 mL/min/kg and an AUC ([3]; Day 5, read-out: Area under the concentration-time curve AUC) of 123 µM·h. It also gave a half-life ([3]; Day 5, read-out: Half-time T1/2 (converted)) of 2.72 h.
